Entries after “also recorded” stand apart in the source; their conditions may differ.

The subject of data set [1] is murine T-cells. As to conditions: extremely low concentrations. The source says:
(§1) Mouse splenocytes were activated using CD3/CD28 antibodies and cultured in the presence of recombinant IL-2 and IL-7 for 24 hrs prior to transduction with CAR-T vectors.
(§2) Cells were stained using fluorochrome labelled antibodies against CD4, CD8, CD44, CD62L to phenotype the murine CAR-T-cells following manufacturing. Human CAR-T-cells were phenotyped using fluorochrome-conjugated antibodies against CD4, CD8, CD45RA, CD45RO, CD44, CD62L, CCR7, CD27, PD-1 and CD69. A fixable live/dead dye was used to distinguish between live or dead cells.

Data set [2] relates to murine CAR-T-cells. Put plainly: Flow cytometry phenotyping of murine CAR-T-cells after manufacturing. The format is cell-based, mouse.
Source text: as §1, §2
Splenocytes from C57BL/6 donor mice were activated with 1 μg mL^−1 anti-CD3, 1 μg mL-1 anti-CD28 in the presence of IL-2 and 200 pg mL-1 IL-7 for 1 day then ficoll gradient treatment. Cells were transduced in plates coated with 1 μg mL of retronectin using supernatant produced from a GP+86 LXSN-anti-Her2 CAR packaging cell line. The transduced cells were then expanded in complete RPMI with the same concentration of IL-2 and IL-7 with or without 5 μM of PTX-200. Fresh IL-2 and IL-7 in complete media were added to all CAR-T-cells 2 days post-transduction.
Background: A flow cytometer gives signals particle by particle.

Data set [3] concerns human CAR-T-cells. Put plainly: Flow cytometry phenotyping of human CAR-T-cells from PBMC donors. In kind it is cell-based. The procedure: Human PBMCs were extracted from buffy packs (Australian Red Cross Blood Service). They were activated using anti-CD3 antibody (OKT3) for 2 days before transduction for 48 hours, all in the presence of IL-2.
Buffy coats from three donors were processed to isolate PBMCs, where 50 million PBMCs were cultured for 2 days in the presence of media containing anti-CD3 antibodies (OKT3, 1.5 μg per mL) and recombinant IL-2 (600 U/mL). […] Samples were collected either 24 or 72 hours later.

The test system of data set [4] is human CAR-T-cells. Put plainly: Mass spectrometry of cellular proteome. In kind it is cell-based. As to conditions: treatment of PBMCs.
Source text: At each time point, cells were collected and washed three times with cold DPBS before cell lysis for global proteomic analysis.
Cells were homogenised/solubilised containing protease and phosphatase inhibitor (HALT) by tip-probe sonication, quantified, normalized and reduced (dithiothreitol, DTT), alkylated (iodoacetamide), before Sera-Mag Speed Bead-based protein digestion with LysC (enzyme:substrate 1:100, Wako Pure Chemical Industries) trypsin (enzyme:substrate 1:50). […] Peptides desalted (SDB-RPS Stage-Tips), and analysed for global cellular proteome.
Spectra acquired in data dependent acquisition on an Orbitrap Q-Exactive HF-X mass spectrometer coupled to an Easy-nLC 1200 (Thermo Fisher Scientific) ultra-high pressure liquid chromatography (UHPLC) pump. […] The most intense MS1 ions were selected for MS2 analysis, fragmented by higher-energy collisional dissociation with normalized collision energy of 33. Precursors were filtered according to charge state≥2, AGC set at 1e5 for MS/MS, with monoisotopic peak used.
Mass spectra were pre-processed and processed using MaxQuant (1.6.14). […]
For further data analysis, the normalized intensities were converted into log 2 ratios of the intensities over the median intensity measured for each protein across each sample group, with statistical analyses performed using Student's T-test or ANOVA (p-value<0.05 was considered significant). […]
The test system of data set [5] is MC-38-hHer2. Put plainly: MC-38-hHer2 colon cancer model in hHer2 transgenic mice. The format is in vivo, mouse.
Experimental: C57BL/6J wildtype (WT) and human Her2 (hHer2) transgenic mouse lines were all in bred and maintained at the Peter MacCallum Cancer Centre (Victoria, Australia). Mice between the age of 6 and 16 weeks were gender-matched and randomised into different treatment groups.
Her2 transgenic recipients were either injected subcutaneously with 2.5×10^5 of MC38-hHer2 or 2.5×10^5 of E0771-hHer2 into the mammary fat pad with. Once the tumours become palpable and they were measured using a manual caliper and tumour area calculated in millimetres squared (mm^2, length×width). On day 6-7 post-tumour inoculation, tumour-bearing Her2+ mice were ranodmised to have an average tumour size of 20 mm^2, 20×10^6 of CAR-transduced T-cells were adoptively transferred into these recipients. 50 000 U of IL-2 was administered via intraperitoneal injection 5 times over the next 2 days. Tumour sizes were measured and monitored every 2-3 days until their tumour size exceed 120 mm^2 or until the tumour-bearing mice reached a designated experimental time point.
Data set [6] in a line: Immune subsets in spleen and tumour, MC-38-hHer2 model. As to conditions: TCN-P as adjuvant in the presence of CAR-T-cells. The format is in vivo, mouse. The text has this: Blood of mice was collected directly into EDTA-containing tube via submandibular bleeding at day 8-9 post-treatment. At the experimental endpoint, various organs including tumour, draining lymph node (dLN) and spleen were collected immediately after euthanasia. Single cell suspension from the dLN and spleen were achieved by processing these organs through a 70 μm filter. For splenocytes, red blood cells were lysed with ACK lysis buffer. Solid tumours were manually sliced and digested with DMEM containing 1 mg mL^−1 type IV collagenase and 0.02 mg mL^−1 DNAse for 30 mins at 37° C. in a rocking incubation at 120 r.p.m. Digestion was neutralised with DMEM and processed through a 70 μm filter and resuspended in either FACS buffer or complete RPMI media. […]
Cells were blocked for 15 mins at room temperature with Fc receptor block (clone 2.4G2 of the hybridoma supernatant diluted 1:50 with FACS buffer). […] The number of target T-cell population was calculated by using: the number of input beads in the sample/bead events×events of targeted population.

On to `CN1N=C(N)c2cn([C@@H]3O[C@H](COP(=O)(O)O)[C@@H](O)[C@H]3O)c3ncnc1c23` [TCN-P, triciribine 5′-monophosphate], for which the “tolerability by transduced T-cells” value in data set [1] is reported as “well-tolerated”. In addition, the “ratio of CD4:CD8 T-cells” value in data set [2] (TCN-P conditioning during CAR-T manufacturing, prior to administration) is listed as “unchanged”. For the same compound, the “central memory CD8+ CAR-T-cells (CD44+ CD62L+)” value in data set [2] (TCN-P preconditioning during CAR-T manufacturing) is on record as “significant enrichment”. The “effector T (TE) cells in CD8+ CAR-T-cells” value turned out to be 5% in data set [3] (24 hrs, n=3 donors, control/vehicle 8%) and 23% in data set [3] (3 days, after 24 hour treatment, n=3, control/vehicle 35%). Also, in data set [3] (24 hrs, n=3 donors, control/vehicle 11%), the “Central memory T (TCM) cells (CD45RO+ CD62L+) in CD8+ CAR-T-cells, mean” value came out at 17%. In addition, in data set [3] (3 days, after 24 hour treatment, n=3, control/vehicle 9%), the “Central memory T (TCM) cells (CD45RO+ CD62L+) in CD8+ CAR-T-cells” value is listed as 16%. Besides, the “CCR7+ TCM, mean” value in data set [3] (CD8+ CAR-T, pre-treatment, from 9%) is given as 16%. Besides, in data set [3] (CD8+ CAR-T, pre-treatment, from 35%), the “CCR7+ TE” value is listed as 23%. In addition, the “TCM or TE phenotype of CD4+ CAR-T-cells” value in data set [3] (pre-treatment, 24 hrs and 3 days) was “did not have any effect”. For the same compound, the “TREG proportions (CD4+CD25+FoxP3+) in CD4+ transduced CAR-T-cells” value in data set [3] (pre-treatment, low concentrations) is listed as “reduced”. Also, the “enrichment of proteins associated with interferon signalling and anti-viral activity” value in data set [4] is recorded as “increased enrichment”. For the same compound, the “proteins associated with metabolism and RNA processing” value in data set [4] is recorded as “enriched”. The “tumour control / tumour killing, tumour sizes until day 14” value in data set [5] (25 mg/kg TCN-P adjuvant every 3 days following Her2-targeting CAR-T administration) is given as “significantly improved”. Moreover, the median survival duration in data set [5] (TCN-P 25 mg/Kg, 20×10^6 CAR-T-cells, control group 15 days) is 20 days. The “anti-tumour effect (tumour growth)” value in data set [5] (TCN-P alone, 5, 25 or 50 mg/Kg i.p. every 3-4 days) is given as “dosage dependent anti-tumour effect; also recorded: strong anti-tumour effect”. Further, the “reduction of intratumoral Tregs” value in data set [6] is recorded as 50%.

The values are drawn from patent US20240226165A1, “Methods of Producing Improved Immune Cell Populations” (Prescient Therapeutics Ltd, priority 2021, published 2024).
